Data set [1] deals with RdRp. Details: method as in ref 29 (a number printed in a supplementary file, which may have a reference list of its own: not looked up in the article's list). The following applies: PDB 1T05; read-out: Binding affinity to RdRp (IC50); cited from earlier work.
A further data set has as its system Mpro. The settings on record: read-out: Binding affinity to Mpro (IC50); PDB 6W63; cited from earlier work.
Data set [2] concerns RdRp. Also on record: method as in ref 28 (a number printed in a supplementary file, which may have a reference list of its own: not looked up in the article's list). The following applies: PDB 4WTG; read-out: Binding affinity to RdRp (IC50); cited from earlier work.
The target in a further data set is SARS-CoV-2 RdRp (Severe acute respiratory syndrome coronavirus 2, UniProt P0DTD1). The experiment in a line: RdRp enzyme assay kit. It counts as biochemical. Also on record: dose or concentration left out as unconfirmed. The settings on record: positive control, even at high concentrations.
In data set [3] the test system is SARS-CoV-2. The experiment in a line: microbe, parasite or virus in culture. It counts as cell-based. The settings on record: Severe acute respiratory syndrome coronavirus 2, Calu-3, 24 h, Calu-3 cells, MOI 0.5, 24 h.
Another data set deals with M^pro (Severe acute respiratory syndrome coronavirus 2, UniProt P0DTD1). It is filed as biochemical. The settings on record: FRET assay, 0.1 to 50 μM.
Data set [4] is described as follows: Cytotoxicity (CC50) in Calu-3 cells. The settings on record: human.
Data set [5] can be described thus: Cytotoxicity (CC50) in Vero cells. The following applies: African green monkey.
In data set [6] the test system is SARS-CoV-2. As to the kind of experiment: microbe, parasite or virus in culture. The settings on record: Severe acute respiratory syndrome coronavirus 2, Vero, 24 h, read-out: SARS-CoV-2 IC50 in Vero cells.
For data set [7] the following is noted: read-out: Approx. Cmax (maximum serum concentration); rat, oral; cited from earlier work.

Each structure is given as a SMILES string. Like-named read-outs stand apart in the source and are kept apart here. A value given as a limit tells only on which side of the number the result lay.

As usually defined, the IC50 is the concentration needed to halve the response being measured. As for `C[C@H](Cn1cnc2c(N)ncnc21)OCP(=O)(O)O` [TNV (tenofovir)], the concentration for half-maximal inhibition (IC50) with RdRp [1] was 1.3 µM.
With `CC(C)(C)c1ccc(N(C(=O)c2cnc[nH]2)[C@@H](C(=O)NC2CCCCC2)c2cccnc2)cc1` [X77], the IC50 in the data set with Mpro was 2.3 µM.
Regarding `CC(C)OC(=O)[C@H](C)N[P@](=O)(OC[C@H]1O[C@@H](n2ccc(=O)[nH]c2=O)[C@](C)(F)[C@@H]1O)Oc1ccccc1` [6GS (sofosbuvir)], the half-inhibitory concentration (IC50) in the data set on RdRp [2] is 0.064 µM.
As for `N#C[C@@]1(c2ccc3c(N)ncnn23)O[C@H](COP(=O)(O)OP(=O)(O)OP(=O)(O)O)[C@@H](O)[C@H]1O` [RDV-TP, remdesivir triphosphate], the “activity in RdRp assay” value on SARS-CoV-2 RdRp is given as “did not show activity”.
As usually defined, the CC50 is the concentration at which the toxic effect on the cells reaches its halfway point. As for `Cc1cc(O)c2c(c1)C(=O)c1cc(O)cc(O)c1C2=O` [Emodin], the IC50 was 27.9 µM in the data set on SARS-CoV-2 [3] and 31.4 µM in the data set with SARS-CoV-2 [6]. In addition, the “inhibitory activity against M^pro” value at M^pro is “showed inhibitory activities”. In addition, the half-maximal cytotoxic concentration (CC50) at 24 h in [4] and in [5] was over 50 µM in each case. The Cmax in [7] was about 78 nM.

The values are drawn from article PMC8325362, “Drugs repurposed for COVID-19 by virtual screening of 6,218 drugs and cell-based assay” (Proceedings of the National Academy of Sciences of the …, 2021).
